In patent US6288091A, “Antiherpes virus compounds and methods for their preparation and use” (Boehringer Ingelheim Ltd., priority 1999, dated 2001):
Where two headings read alike, the source gives them in different places.

Legend:
HSV-1 helicase-primase = biological target: T1, HSV-1 helicase-primase (Human herpesvirus 1, UniProt P10189+P10236); test: HSV-1 DNA-dependent ATPase assay (inhibition of HSV-1 helicase-primase); format: biochemical
T1 construct: made in house; host or cells: Sf21 insect cells triply infected with recombinant baculoviruses (UL5, UL8, UL52)
How it was run: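 Holoenzyme (UL5/UL8/UL52) expressed in baculovirus-infected Sf21 cells and purified, used at 3 μg/mL with 4 mM ATP and 25 μM primed M13 ssDNA in HEPES pH 7.5, 5.5 mM MgCl2, 3.3% DMSO. Incubated 20 min at 34°. Released phosphate read by malachite green at 650 nm, and activity taken from net absorbance with versus without inhibitor.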

HCMV (strain AD169) = test: Inhibition of HCMV replication, ELISA assay (Hs-68 cells); format: cell-based, Human Cytomegalovirus (HCMV); details: read-out: ELISA CMV EC50
Experimental: C) Inhibition of Human Cytomegalovirus (HCMV) Replication
The effect of compounds on the replication of HCMV has been measured by using an ELISA-based assay (ELISA) and a plaque reduction assay (PRA).
Hs-68 cells (ATCC # CRL 1635) were seeded in 96 well microtiter plates at 10,000 cells/well in 100 μL of DMEM medium (Gibco Canada Inc.) supplemented with 10% fetal bovine serum (FBS, Gibco Canada Inc.). The plates were incubated for 3 days at 37° to allow the cells to reach 80-90% confluency prior to the assay.
The medium was removed from wells by aspiration. The cells then were infected at a multiplicity of infection (MOI) of 0.01 PFU/cell with 50 μL of HCMV (strain AD169, ATCC VR-538) in DMEM medium supplemented with 5% heat inactivated FBS (assay medium). The virus was allowed to adsorb to cells for 2 h at 37°. Following viral adsorption, the medium was removed from the wells by aspiration. The cells were washed twice with 200 μL of assay medium to remove unabsorbed virus. The cells were then incubated with or without 100 μL of appropriate concentrations of test reagent in assay medium. After 8 days of incubation at 37°, the extent of viral replication was determined by an ELISA assay which detects the late structural protein p28 of HCMV.
Eight days after infection, the medium was aspirated from the wells. Non-specific binding sites were blocked by adding 200 μL of phosphate buffered saline containing 1% (w/v) bovine serum albumin (blocking buffer) to each well and incubating the plates for 30 min at room temperature. After removal of the blocking buffer by aspiration, the cells were fixed with 100 μL of cold ethanol-acetone solution (95:5) per well. The plates were placed at -20° for 30 min. The plates were washed 4 times with phosphate buffered saline containing 0.05% (v/v) polyoxyethylene sorbitan monolaurate (Tween®). Thereafter, 100 μL of mAb UL99 (Advanced Biotechnologies Inc., #13-130-100) recognizing HCMV protein p28 was added to each wells and plates were incubated for 2 h at room temperature. The plates were washed four times with 200 μL of the above-noted phosphate buffered saline/Tween-20® solution. The cells were then incubated with 100 μL of sheep anti-mouse IgGγ horseradish peroxidase conjugated for 2 h at room temperature. The plates were then washed four times with 200 μL of above-noted phosphate buffered saline/Tween-20® solution. Thereafter, 100 μL of ortho phenylenediamine dihydrochloride (OPD, Gibco Canada Inc.) solution was added to each well and the plates were agitated on a microplate shaker for 30 min in the dark. Color development was monitored at 450 nm using a microplate spectrophotometer.
The SAS program was used to calculate the % inhibition of viral replication and to generate EC50 values.
The EC50 values obtained according to this assay method for certain thiazolylphenyl derivatives of this invention are listed in the following tables under the heading ELISA CMV.

HSV-1 strain F or KOS = test: Inhibition of herpes simplex virus (HSV-1) replication in cell culture (BHK-21 cells, glycoprotein C ELISA); format: cell-based
How it was run: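 BHK-21 clone 13 cells infected with HSV-1 F or KOS at MOI 0.05 PFU/cell for 1 h at 37°, washed, then treated with compound in α-MEM/2% FBS for 24 h. Late glycoprotein C quantified by ELISA (mAb C11, HRP/OPD, 450 nm); EC50 from % inhibition.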

[1] = Human betaherpesvirus 5, AD169, Hs68, Group 1 Table 5 entries
[2] = Human alphaherpesvirus 1, BHK-21, Group 1 Table 5 entries
[3] = Human betaherpesvirus 5, AD169, Hs68, Group 1 Table 3 entries
[4] = Human alphaherpesvirus 1, BHK-21, Group 1 Table 3 entries
[5] = Human betaherpesvirus 5, AD169, Hs68, Group 1 Table 1 entries
[6] = Human alphaherpesvirus 1, BHK-21, Group 1 Table 1 entries

T1 sequence (P10192 whole entry): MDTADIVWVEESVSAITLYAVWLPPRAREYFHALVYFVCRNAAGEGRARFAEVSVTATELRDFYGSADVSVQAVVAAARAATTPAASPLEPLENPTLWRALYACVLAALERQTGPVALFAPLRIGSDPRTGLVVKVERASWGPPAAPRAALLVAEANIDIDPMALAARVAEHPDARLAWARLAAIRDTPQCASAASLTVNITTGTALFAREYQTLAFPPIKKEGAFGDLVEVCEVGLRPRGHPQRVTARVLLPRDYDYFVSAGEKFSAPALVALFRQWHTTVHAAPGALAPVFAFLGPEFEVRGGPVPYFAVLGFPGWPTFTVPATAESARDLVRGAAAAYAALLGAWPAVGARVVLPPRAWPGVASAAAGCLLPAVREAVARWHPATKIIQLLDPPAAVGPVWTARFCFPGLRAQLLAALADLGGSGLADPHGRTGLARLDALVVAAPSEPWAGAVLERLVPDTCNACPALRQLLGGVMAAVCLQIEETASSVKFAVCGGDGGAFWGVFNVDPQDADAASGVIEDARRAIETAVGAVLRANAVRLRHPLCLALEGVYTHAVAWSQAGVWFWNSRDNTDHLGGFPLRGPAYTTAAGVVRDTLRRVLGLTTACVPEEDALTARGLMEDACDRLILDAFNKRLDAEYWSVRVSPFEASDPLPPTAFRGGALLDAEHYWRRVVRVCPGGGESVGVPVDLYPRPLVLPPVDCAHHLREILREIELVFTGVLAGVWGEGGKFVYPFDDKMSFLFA
T1 sequence (P10236 whole entry): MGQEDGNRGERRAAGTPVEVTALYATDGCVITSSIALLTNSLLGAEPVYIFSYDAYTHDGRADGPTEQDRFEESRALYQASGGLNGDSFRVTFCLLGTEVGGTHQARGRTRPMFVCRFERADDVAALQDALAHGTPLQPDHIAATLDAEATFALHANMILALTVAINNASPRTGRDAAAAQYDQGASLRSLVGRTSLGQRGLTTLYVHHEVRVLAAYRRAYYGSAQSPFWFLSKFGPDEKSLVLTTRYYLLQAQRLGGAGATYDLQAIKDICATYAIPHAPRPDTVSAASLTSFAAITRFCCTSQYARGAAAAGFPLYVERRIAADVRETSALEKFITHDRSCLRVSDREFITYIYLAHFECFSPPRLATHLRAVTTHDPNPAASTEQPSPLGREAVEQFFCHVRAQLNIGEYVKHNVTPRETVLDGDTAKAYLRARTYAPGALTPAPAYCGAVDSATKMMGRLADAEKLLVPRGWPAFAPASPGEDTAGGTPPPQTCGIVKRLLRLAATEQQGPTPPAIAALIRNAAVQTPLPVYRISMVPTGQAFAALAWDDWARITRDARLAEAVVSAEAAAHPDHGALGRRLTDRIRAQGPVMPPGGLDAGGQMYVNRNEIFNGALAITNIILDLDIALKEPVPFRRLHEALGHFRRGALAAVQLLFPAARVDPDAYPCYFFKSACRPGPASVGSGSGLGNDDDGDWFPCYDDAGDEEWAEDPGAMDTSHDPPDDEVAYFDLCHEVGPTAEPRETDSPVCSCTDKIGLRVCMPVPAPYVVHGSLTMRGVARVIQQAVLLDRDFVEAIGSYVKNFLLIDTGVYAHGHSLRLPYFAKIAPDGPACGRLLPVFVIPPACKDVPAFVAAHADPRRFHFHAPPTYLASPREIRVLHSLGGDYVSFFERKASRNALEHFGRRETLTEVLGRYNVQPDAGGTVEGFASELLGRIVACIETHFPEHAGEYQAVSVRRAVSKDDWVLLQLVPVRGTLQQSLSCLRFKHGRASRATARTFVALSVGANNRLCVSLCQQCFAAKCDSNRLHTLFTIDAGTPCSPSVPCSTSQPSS
T1 sequence (P10189 whole entry): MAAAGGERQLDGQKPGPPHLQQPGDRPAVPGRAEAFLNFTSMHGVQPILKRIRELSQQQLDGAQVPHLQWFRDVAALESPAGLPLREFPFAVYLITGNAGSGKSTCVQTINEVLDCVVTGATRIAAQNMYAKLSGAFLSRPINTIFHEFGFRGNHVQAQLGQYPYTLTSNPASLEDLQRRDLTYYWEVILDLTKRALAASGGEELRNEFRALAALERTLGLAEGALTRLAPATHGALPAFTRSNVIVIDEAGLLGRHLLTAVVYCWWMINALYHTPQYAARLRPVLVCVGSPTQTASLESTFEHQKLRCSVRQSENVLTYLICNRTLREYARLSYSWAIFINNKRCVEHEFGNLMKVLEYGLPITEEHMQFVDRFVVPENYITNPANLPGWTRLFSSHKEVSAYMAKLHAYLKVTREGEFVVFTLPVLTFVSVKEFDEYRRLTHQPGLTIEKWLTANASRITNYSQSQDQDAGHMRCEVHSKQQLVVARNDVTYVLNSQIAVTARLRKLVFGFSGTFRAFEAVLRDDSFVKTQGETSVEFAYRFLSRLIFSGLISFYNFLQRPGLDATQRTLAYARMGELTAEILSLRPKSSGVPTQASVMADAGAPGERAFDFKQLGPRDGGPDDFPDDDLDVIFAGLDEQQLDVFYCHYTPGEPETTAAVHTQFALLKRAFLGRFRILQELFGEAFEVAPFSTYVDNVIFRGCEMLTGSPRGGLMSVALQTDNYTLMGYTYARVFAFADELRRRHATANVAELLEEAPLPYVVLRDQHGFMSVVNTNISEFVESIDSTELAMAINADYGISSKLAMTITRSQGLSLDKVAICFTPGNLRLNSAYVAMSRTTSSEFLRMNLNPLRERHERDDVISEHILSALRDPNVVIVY

| SMILES | IC50 (HSV-1 helicase-primase; Group 1 Table 5 entries) [µM] | EC50 (HCMV (strain AD169); [1]) [µM] | EC50 (HSV-1 strain F or KOS; [2]) [µM] | EC50 (HCMV (strain AD169); [5]) [µM] | also measured |
| --- | --- | --- | --- | --- | --- |
| C[C@H](C(=O)Nc1ccc(-c2csc(N)n2)cc1)N(Cc1ccccc1)C(=O)C1CCCCC1 [Example 15] | 0.041 | 3.2 | 0.006 | – | – |
| CN(C)c1nc(-c2ccc(NC(=O)CN(Cc3ccccc3)C(=O)OC(C)(C)C)cc2)cs1 [Example 16] | – | – | – | – | IC50 (HSV-1 helicase-primase; Group 1 Table 3 entries): > 50 µM; EC50 (HCMV (strain AD169); [3]): 4.8 µM; EC50 (HSV-1 strain F or KOS; [4]): 0.009 µM |
| C[C@@H](C(=O)Nc1ccc(-c2csc(N)n2)cc1)N(Cc1ccccc1)C(=O)OC(C)(C)C [Example 16] | 0.46 | 2.8 | 0.079 | – | – |
| CN(C)c1nc(-c2ccc(NC(=O)CN(CC3CCCCC3)C(=O)OC(C)(C)C)cc2)cs1 [Example 17] | – | – | – | – | IC50 (HSV-1 helicase-primase; Group 1 Table 3 entries): > 50 µM; EC50 (HCMV (strain AD169); [3]): 4 µM; EC50 (HSV-1 strain F or KOS; [4]): > 8 µM |
| C[C@H](C(=O)Nc1ccc(-c2csc(N)n2)cc1)N(Cc1ccccc1)C(=O)OC(C)(C)C [Example 17] | 0.11 | 7.6 | 0.055 | – | – |
| CC(=O)Nc1nc(-c2ccc(NC(=O)CN(Cc3ccccc3)C(=O)c3ccncc3)cc2)cs1 [Example 19] | – | – | – | – | IC50 (HSV-1 helicase-primase; Group 1 Table 3 entries): > 50 µM; EC50 (HCMV (strain AD169); [3]): 28 µM; EC50 (HSV-1 strain F or KOS; [4]): 9 µM |
| CC(C)(C)C(=O)N[C@@H](Cc1ccccc1)C(=O)Nc1ccc(-c2csc(N)n2)cc1 [Example 20] | 1.3 | 10 | 0.6 | – | – |
| CC(=O)N[C@@H](Cc1ccccc1)C(=O)Nc1ccc(-c2csc(N)n2)cc1 [Example 21] | 3.1 | 4.4 | 4.7 | – | – |
| CC(C)OC(=O)N[C@@H](Cc1ccccc1)C(=O)Nc1ccc(-c2csc(N)n2)cc1 [Example 22] | 0.83 | 18 | 0.25 | – | – |
| CC(C)(C)OC(=O)N[C@@H](CC1CCCCC1)C(=O)Nc1ccc(-c2csc(N)n2)cc1 [Example 24] | 0.017 | 8.1 | 0.043 | – | – |
| Cc1cccc(C)c1C(=O)N(CC(=O)Nc1ccc(-c2csc(N)n2)cc1)Cc1ccccc1 [Example 25] | – | – | – | 4.4 | IC50 (HSV-1 helicase-primase; Group 1 Table 1 entries): 0.047 µM; EC50 (HSV-1 strain F or KOS; [6]): 0.011 µM |
| CC(C)(C)OC(=O)N[C@@H](Cc1cccnc1)C(=O)Nc1ccc(-c2csc(N)n2)cc1 [Example 26] | 0.13 | 19.9 | 0.043 | – | – |
| Nc1nc(-c2ccc(NC(=O)NN3CCCCC3)cc2)cs1 [Example 27] | – | – | – | – | IC50 (HSV-1 helicase-primase; Group 2 Table 1 entries): 50 µM; EC50 (HCMV (strain AD169); Human betaherpesvirus 5, AD169, Hs68, Group 2 Table 1 entries): 15.4 µM; EC50 (HSV-1 strain F or KOS; Human alphaherpesvirus 1, BHK-21, Group 2 Table 1 entries): 15.7 µM |
| C[C@@H](c1ccccc1)N(C)CCC(=O)Nc1ccc(-c2csc(N)n2)cc1 [Example 28] | – | – | – | – | EC50 (HCMV (strain AD169); Human betaherpesvirus 5, AD169, Hs68, Group 1 Table 2 entries): 18 µM; EC50 (HSV-1 strain F or KOS; Human alphaherpesvirus 1, BHK-21, Group 1 Table 2 entries): 2 µM |
| CC1(C(=O)N(CC(=O)Nc2ccc(-c3csc(N)n3)cc2)Cc2ccccc2)CCCCC1 [Example 35] | – | – | – | 8.1 | IC50 (HSV-1 helicase-primase; Group 1 Table 1 entries): 0.035 µM; EC50 (HSV-1 strain F or KOS; [6]): 0.006 µM |
| CC(C)(C)OC(=O)N1CCC(C(=O)N(CC(=O)Nc2ccc(-c3csc(N)n3)cc2)Cc2ccccc2)CC1 [Example 40] | – | – | – | 25 | IC50 (HSV-1 helicase-primase; Group 1 Table 1 entries): 1.7 µM; EC50 (HSV-1 strain F or KOS; [6]): 0.7 µM |
| C[C@@H](C1CCCCC1)N(CC(=O)Nc1ccc(-c2csc(N)n2)cc1)C(=O)OC(C)(C)C [Example 108] | – | – | – | 6.8 | EC50 (HSV-1 strain F or KOS; [6]): 0.39 µM |
| CC(C)CN(CC(=O)Nc1ccc(-c2csc(N)n2)cc1)C(=O)OC(C)(C)C [Example 112] | – | – | – | 3.2 | EC50 (HSV-1 strain F or KOS; [6]): 1.2 µM |
| Nc1nc(CC(=O)N(CC(=O)Nc2ccc(-c3csc(N)n3)cc2)Cc2ccccc2)cs1 [Example 119] | – | – | – | 25 | IC50 (HSV-1 helicase-primase; Group 1 Table 1 entries): 0.68 µM |
| CN1CCC(C(=O)N(CC(=O)Nc2ccc(-c3csc(N)n3)cc2)Cc2ccccc2)CC1 [Example 123] | – | – | – | 41 | IC50 (HSV-1 helicase-primase; Group 1 Table 1 entries): > 50 µM |
